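Five concentrations, 48 hours, 96-well plates. Here, GI50 denotes the concentration required for 50% inhibition of growth.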 Activity calls are given as the source filed them. No stated cut-off is given here; in the data, active = GI50 up to about 1.1 µM and inactive = higher.
Assays:
Assay in all cases: NCI-60 cell line screen, 48 h
SK-MEL-5 = system: SK-MEL-5
HOP-92 = system: HOP-92
A549 = system: A549
UO-31 = system: UO-31
KM12 = system: KM12
HT-29 = system: HT-29
RPMI-8226 = system: RPMI-8226
786-0 = system: 786-0
SK-MEL-28 = system: SK-MEL-28
SN12C = system: SN12C
DU-145 = system: DU-145
OVCAR-4 = system: OVCAR-4
SNB-19 = system: SNB-19
EKVX = system: EKVX
SF-295 = system: SF-295
HCC 2998 = system: HCC 2998
TK-10 = system: TK-10
HCT-116 = system: HCT-116
HOP-62 = system: HOP-62
RXF 393 = system: RXF 393
HCT-15 = system: HCT-15
U-251 = system: U-251
IGROV-1 = system: IGROV-1
MDA-MB-231 = system: MDA-MB-231
SK-OV-3 = system: SK-OV-3
SF-539 = system: SF-539
SW-620 = system: SW-620
UACC-257 = system: UACC-257
ACHN = system: ACHN
A498 = system: A498
SF-268 = system: SF-268
HL-60 = system: HL-60
LOX IMVI = system: LOX IMVI
Hs-578T = system: Hs-578T
MOLT-4 = system: MOLT-4
CAKI-1 = system: CAKI-1
T47D = system: T47D
M14 = system: M14
SNB-75 = system: SNB-75
BT-549 = system: BT-549
K562 = system: K562
NCI-H460 = system: NCI-H460
NCI/ADR-RES = system: NCI/ADR-RES
CCRF-CEM = system: CCRF-CEM
MDA-MB-435 = system: MDA-MB-435
NCI-H23 = system: NCI-H23
SR = system: SR
PC-3 = system: PC-3
OVCAR-8 = system: OVCAR-8
NCI-H226 = system: NCI-H226
MCF7 = system: MCF7
MDA-N = system: MDA-N
NCI-H522 = system: NCI-H522
SK-MEL-2 = system: SK-MEL-2
UACC-62 = system: UACC-62
COLO 205 = system: COLO 205
OVCAR-3 = system: OVCAR-3
Malme-3M = system: Malme-3M
OVCAR-5 = system: OVCAR-5

SMILES: Cc1ccc(-c2c(-c3ccccc3)[nH]c(C)c2C(=O)ONC(=O)c2ccccc2)cc1
- GI50 (SK-MEL-5): 6.41 µM (inactive)
- GI50 (HOP-92): 1.67 µM (inactive)
- GI50 (A549): 2.52 µM (inactive)
- GI50 (UO-31): 0.303 µM (active)
- GI50 (KM12): 9.68 µM (inactive)
- GI50 (HT-29): 7.83 µM (inactive)
- GI50 (RPMI-8226): 3.46 µM (inactive)
- GI50 (786-0): 3.03 µM (inactive)
- GI50 (SK-MEL-28): 12.1 µM (inactive)
- GI50 (SN12C): 2.53 µM (inactive)
- GI50 (DU-145): 1.82 µM (inactive)
- GI50 (OVCAR-4): 2.72 µM (inactive)
- GI50 (SNB-19): 6.38 µM (inactive)
- GI50 (EKVX): 7.28 µM (inactive)
- GI50 (SF-295): 1.93 µM (inactive)
- GI50 (HCC 2998): 15.5 µM (inactive)
- GI50 (TK-10): 5.52 µM (inactive)
- GI50 (HCT-116): 2.48 µM (inactive)
- GI50 (HOP-62): 1.99 µM (inactive)
- GI50 (RXF 393): 1.87 µM (inactive)
- GI50 (HCT-15): 9.25 µM
- GI50 (U-251): 1.84 µM (inactive)
- GI50 (IGROV-1): 1.46 µM (inactive)
- GI50 (MDA-MB-231): 3.4 µM (inactive)
- GI50 (SK-OV-3): 14.4 µM (inactive)
- GI50 (SF-539): 2.97 µM (inactive)
- GI50 (SW-620): 8.51 µM (inactive)
- GI50 (UACC-257): 13.7 µM (inactive)
- GI50 (ACHN): 1.91 µM (inactive)
- GI50 (A498): 12.7 µM (inactive)
- GI50 (SF-268): 2.36 µM (inactive)
- GI50 (HL-60): 0.673 µM (active)
- GI50 (LOX IMVI): 1.75 µM (inactive)
- GI50 (Hs-578T): 2.01 µM (inactive)
- GI50 (MOLT-4): 2.74 µM (inactive)
- GI50 (CAKI-1): 2.19 µM (inactive)
- GI50 (T47D): 4.6 µM (inactive)
- GI50 (M14): 5.19 µM (inactive)
- GI50 (SNB-75): 1.92 µM (inactive)
- GI50 (BT-549): 3.52 µM (inactive)
- GI50 (K562): 2.55 µM (inactive)
- GI50 (NCI-H460): 2.17 µM (inactive)
- GI50 (NCI/ADR-RES): 4.65 µM (inactive)
- GI50 (CCRF-CEM): 2.97 µM (inactive)
- GI50 (MDA-MB-435): 2.19 µM (inactive)
- GI50 (NCI-H23): 5.53 µM (inactive)
- GI50 (SR): 1.66 µM (inactive)
- GI50 (PC-3): 5.92 µM (inactive)
- GI50 (OVCAR-8): 4.62 µM (inactive)
- GI50 (NCI-H226): 7.24 µM (inactive)
- GI50 (MCF7): 4.84 µM (inactive)
- GI50 (MDA-N): 2.35 µM (inactive)
- GI50 (NCI-H522): 2.31 µM (inactive)
- GI50 (SK-MEL-2): 3.7 µM (inactive)
- GI50 (UACC-62): 10.2 µM (inactive)
- GI50 (COLO 205): 11.7 µM (inactive)
- GI50 (OVCAR-3): 4.49 µM (inactive)
- GI50 (Malme-3M): 11.4 µM (inactive)
- GI50 (OVCAR-5): 8.65 µM (inactive)

SMILES: COc1ccccc1CC1(O)OC(=O)c2ccccc21 (configuration not stated)
- GI50 (SK-MEL-5): > 100 µM (inactive)
- GI50 (HOP-92): > 100 µM (inactive)
- GI50 (A549): > 100 µM (inactive)
- GI50 (UO-31): > 100 µM (inactive)
- GI50 (KM12): > 100 µM (inactive)
- GI50 (HT-29): > 100 µM (inactive)
- GI50 (RPMI-8226): > 100 µM (inactive)
- GI50 (786-0): > 100 µM (inactive)
- GI50 (SK-MEL-28): > 100 µM (inactive)
- GI50 (SN12C): > 100 µM (inactive)
- GI50 (DU-145): > 100 µM (inactive)
- GI50 (OVCAR-4): > 100 µM (inactive)
- GI50 (SNB-19): > 100 µM (inactive)
- GI50 (EKVX): > 100 µM (inactive)
- GI50 (SF-295): > 100 µM (inactive)
- GI50 (HCC 2998): > 100 µM (inactive)
- GI50 (TK-10): > 100 µM (inactive)
- GI50 (HCT-116): > 100 µM (inactive)
- GI50 (HOP-62): > 100 µM (inactive)
- GI50 (RXF 393): > 100 µM (inactive)
- GI50 (HCT-15): > 100 µM
- GI50 (U-251): > 100 µM (inactive)
- GI50 (IGROV-1): > 100 µM (inactive)
- GI50 (MDA-MB-231): > 100 µM (inactive)
- GI50 (SK-OV-3): > 100 µM (inactive)
- GI50 (SF-539): > 100 µM (inactive)
- GI50 (SW-620): > 100 µM (inactive)
- GI50 (UACC-257): > 100 µM (inactive)
- GI50 (ACHN): > 100 µM (inactive)
- GI50 (A498): > 100 µM (inactive)
- GI50 (SF-268): > 100 µM (inactive)
- GI50 (HL-60): > 100 µM (inactive)
- GI50 (LOX IMVI): > 100 µM (inactive)
- GI50 (Hs-578T): > 100 µM (inactive)
- GI50 (MOLT-4): > 100 µM (inactive)
- GI50 (CAKI-1): > 100 µM (inactive)
- GI50 (T47D): > 100 µM (inactive)
- GI50 (M14): > 100 µM (inactive)
- GI50 (SNB-75): > 100 µM (inactive)
- GI50 (BT-549): > 100 µM (inactive)
- GI50 (K562): > 100 µM (inactive)
- GI50 (NCI-H460): > 100 µM (inactive)
- GI50 (NCI/ADR-RES): > 100 µM (inactive)
- GI50 (CCRF-CEM): > 100 µM (inactive)
- GI50 (MDA-MB-435): > 100 µM (inactive)
- GI50 (NCI-H23): > 100 µM (inactive)
- GI50 (SR): > 100 µM (inactive)
- GI50 (PC-3): > 100 µM (inactive)
- GI50 (OVCAR-8): > 100 µM (inactive)
- GI50 (NCI-H226): > 100 µM (inactive)
- GI50 (MCF7): > 100 µM (inactive)
- GI50 (MDA-N): > 100 µM (inactive)
- GI50 (NCI-H522): > 100 µM (inactive)
- GI50 (SK-MEL-2): > 100 µM (inactive)
- GI50 (UACC-62): > 100 µM (inactive)
- GI50 (COLO 205): > 100 µM (inactive)
- GI50 (OVCAR-3): > 100 µM (inactive)
- GI50 (Malme-3M): > 100 µM (inactive)
- GI50 (OVCAR-5): > 100 µM (inactive)

SMILES: Cc1cc(C)c2c(O)cc(-c3cccc4ccccc34)nc2n1
- GI50 (SK-MEL-5): 0.381 µM (active)
- GI50 (HOP-92): 0.361 µM (active)
- GI50 (A549): 0.867 µM (active)
- GI50 (UO-31): 3.09 µM (inactive)
- GI50 (KM12): 0.406 µM (active)
- GI50 (HT-29): 0.363 µM (active)
- GI50 (RPMI-8226): 0.671 µM (active)
- GI50 (786-0): 0.612 µM (active)
- GI50 (SK-MEL-28): 10.8 µM (inactive)
- GI50 (SN12C): 2.78 µM (inactive)
- GI50 (DU-145): 2.71 µM (inactive)
- GI50 (OVCAR-4): 4.25 µM (inactive)
- GI50 (SNB-19): 1.12 µM (inactive)
- GI50 (EKVX): 0.975 µM (active)
- GI50 (SF-295): 0.615 µM (active)
- GI50 (HCC 2998): 1.14 µM (inactive)
- GI50 (TK-10): > 32.4 µM (inactive)
- GI50 (HCT-116): 0.403 µM (active)
- GI50 (HOP-62): 10 µM (inactive)
- GI50 (RXF 393): 0.746 µM (active)
- GI50 (HCT-15): 0.468 µM
- GI50 (U-251): 0.426 µM (active)
- GI50 (IGROV-1): 1.49 µM (inactive)
- GI50 (MDA-MB-231): 2.22 µM (inactive)
- GI50 (SK-OV-3): 0.462 µM (active)
- GI50 (SF-539): 0.703 µM (active)
- GI50 (SW-620): 0.448 µM (active)
- GI50 (UACC-257): 0.238 µM (active)
- GI50 (ACHN): 0.594 µM (active)
- GI50 (A498): 0.474 µM (active)
- GI50 (SF-268): 2.58 µM (inactive)
- GI50 (HL-60): 0.26 µM (active)
- GI50 (LOX IMVI): 0.628 µM (active)
- GI50 (Hs-578T): 1.09 µM (active)
- GI50 (MOLT-4): 0.863 µM (active)
- GI50 (CAKI-1): 2.07 µM (inactive)
- GI50 (T47D): 24.4 µM (inactive)
- GI50 (M14): 0.745 µM (active)
- GI50 (SNB-75): 0.317 µM (active)
- GI50 (BT-549): 3.3 µM (inactive)
- GI50 (K562): 0.386 µM (active)
- GI50 (NCI-H460): 0.653 µM (active)
- GI50 (NCI/ADR-RES): 0.52 µM (active)
- GI50 (CCRF-CEM): 0.719 µM (active)
- GI50 (MDA-MB-435): 0.172 µM (active)
- GI50 (NCI-H23): 2.13 µM (inactive)
- GI50 (SR): 0.342 µM (active)
- GI50 (PC-3): 0.641 µM (active)
- GI50 (OVCAR-8): 1.14 µM (inactive)
- GI50 (NCI-H226): 1.44 µM (inactive)
- GI50 (MCF7): 0.719 µM (active)
- GI50 (MDA-N): 0.218 µM (active)
- GI50 (NCI-H522): 0.373 µM (active)
- GI50 (SK-MEL-2): 0.291 µM (active)
- GI50 (UACC-62): 0.349 µM (active)
- GI50 (COLO 205): 0.41 µM (active)
- GI50 (OVCAR-3): 0.263 µM (active)
- GI50 (Malme-3M): 0.28 µM (active)
- GI50 (OVCAR-5): 2.29 µM (inactive)

Source: ChEMBL document CHEMBL1201862, “PubChem BioAssay data set” (2004)
